In patent publication US20130303532A1, “IMIDAZOPYRAZINES FOR USE AS MPS-1 AND TKK INHIBITORS IN THE TREATMENT HYPERPROLIFERATIVE DISORDERS” (BAYER INTELLECTUAL PROPERTY GmbH, priority 2010, published 2013):
Like-named read-outs stand apart in the source and are kept apart here.

Target: T1, human kinase Mps-1 (Homo sapiens, UniProt P33981)
T1 construct: N-terminally GST-tagged human full length recombinant Mps-1 kinase; GST (N); purchased Invitrogen, Karslruhe, Germany PV4071
T1 sequence (P33981 1-857): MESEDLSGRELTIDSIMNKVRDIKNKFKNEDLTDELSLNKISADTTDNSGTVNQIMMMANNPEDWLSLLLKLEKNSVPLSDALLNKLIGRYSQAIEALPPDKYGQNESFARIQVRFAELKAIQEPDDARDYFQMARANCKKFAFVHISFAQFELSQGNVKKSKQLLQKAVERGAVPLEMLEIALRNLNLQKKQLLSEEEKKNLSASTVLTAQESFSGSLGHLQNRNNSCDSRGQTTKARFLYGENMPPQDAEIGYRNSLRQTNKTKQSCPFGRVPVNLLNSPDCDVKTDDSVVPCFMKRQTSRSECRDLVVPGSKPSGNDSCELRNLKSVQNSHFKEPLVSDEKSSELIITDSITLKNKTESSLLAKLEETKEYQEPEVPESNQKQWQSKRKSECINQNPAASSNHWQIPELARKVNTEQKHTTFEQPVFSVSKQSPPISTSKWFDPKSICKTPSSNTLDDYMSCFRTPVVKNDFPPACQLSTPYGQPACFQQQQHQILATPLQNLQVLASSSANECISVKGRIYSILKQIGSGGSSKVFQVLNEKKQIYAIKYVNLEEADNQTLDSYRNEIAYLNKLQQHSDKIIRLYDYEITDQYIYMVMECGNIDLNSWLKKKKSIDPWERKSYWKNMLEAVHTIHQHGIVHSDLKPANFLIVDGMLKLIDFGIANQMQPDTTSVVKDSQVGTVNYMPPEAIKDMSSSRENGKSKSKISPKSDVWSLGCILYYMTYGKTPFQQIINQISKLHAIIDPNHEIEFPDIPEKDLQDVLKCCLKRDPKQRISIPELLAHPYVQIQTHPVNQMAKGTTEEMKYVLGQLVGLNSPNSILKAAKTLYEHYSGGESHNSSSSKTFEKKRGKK
Assay: Mps-1 kinase assay (TR-FRET)
Assay type: biochemical
Conditions: N-terminally GST-tagged human full length recombinant Mps-1, 10 μM ATP, 1 μM biotinylated peptide substrate, 60 min at 22° C.

IC50 (read-out: Mps1 IC50) [nM]	Molecule	IC50 (Mps1 IC50 [nM]) [nM]
115	CCNc1nccn2c(-c3ccc(C(=O)NC4CC4)cc3)cnc12 [Example 7-10, N-cyclopropyl-4-[8-(ethylamino)imidazo[1,2-a]pyrazin-3-yl]benzamide]	–
37.2	CCCCNc1nccn2c(-c3ccc(C(=O)NC4CC4)cc3)cnc12 [Example 4-7, 4-[8-(butylamino)imidazo[1,2-a]pyrazin-3-yl]-N-cyclopropylbenzamide]	–

Second part, the molecule before the results:

Molecule	IC50 (read-out: Mps1 IC50) [nM]	IC50 (Mps1 IC50 [nM]) [nM]
Cc1cc(-c2cnc3c(NCc4ccnn4C)nccn23)ccc1C(=O)NC1CC1 [Example 5-5, N-cyclopropyl-2-methyl-4-(8-{[(1-methyl-1H-pyrazol-5-yl)methyl]amino}imi-dazo[1,2-a]pyrazin-3-yl)benzamide]	–	67
COCCNc1nccn2c(-c3ccc(C(=O)NC4CC4)c(Cl)c3)cnc12 [Example 7-36, 2-chloro-N-cyclopropyl-4-{8-[(2-methoxyethyl)amino]imi-dazo[1,2-a]pyrazin-3-yl}benzamide]	–	593
Cc1cc(-c2cnc3c(NCC(F)(F)C(F)(F)F)nccn23)ccc1C(=O)NC1CC1 [Example 7-112, N-cyclopropyl-2-methyl-4-{8-[(2,2,3,3,3-pentafluoropropyl)ami-no]imidazo[1,2-a]pyrazin-3-yl}benzamide]	81.6	–
4-{8-[(3-amino-3- oxopropyl)amino]imi- dazo[1,2-a]pyrazin-3-yl}-N- cyclopropylbenzamide [Example 7-25]	1190	–
O=C(NC1CC1)c1ccc(-c2cnc3c(NCC4CCCO4)nccn23)cc1Cl (stereo not shown) [Example 7-34, 2-chloro-N-cyclopropyl-4-{8-[(tetrahydrofuran-2-ylmethyl)amino]imidazo[1,2-a]pyrazin-3-yl}benzamide]	211	–
